The results in this text go back to US6861434B2, “Antipsychotic aminomethyl derivatives of 1,3,7,8-tetrahydro-6,9-dioxa-1,3-diaza-cyclopenta[a]-naphthalen-2-one” (Wyeth, priority 2001, dated 2005).

Structures can show the parent of a compound that is named as a salt.

For the first data set, the target named is T1, dopamine D2 receptor (Rattus norvegicus, UniProt P61169).
T1 construct: from tissue; host or cells: rat striatal brain tissue homogenate
T1 sequence (P61169 whole entry): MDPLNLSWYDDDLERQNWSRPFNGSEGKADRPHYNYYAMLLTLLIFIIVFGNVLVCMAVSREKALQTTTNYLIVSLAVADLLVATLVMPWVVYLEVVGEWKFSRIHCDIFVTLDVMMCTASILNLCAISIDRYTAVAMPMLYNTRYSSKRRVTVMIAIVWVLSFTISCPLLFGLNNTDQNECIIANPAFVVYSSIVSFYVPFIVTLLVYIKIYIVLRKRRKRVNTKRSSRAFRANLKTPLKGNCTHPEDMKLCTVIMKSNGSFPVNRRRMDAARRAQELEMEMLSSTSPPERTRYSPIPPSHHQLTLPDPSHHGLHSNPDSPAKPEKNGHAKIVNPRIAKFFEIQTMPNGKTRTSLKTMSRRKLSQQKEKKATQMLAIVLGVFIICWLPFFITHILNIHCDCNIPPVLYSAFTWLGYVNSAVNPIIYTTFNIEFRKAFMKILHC
As to the kind of experiment: Dopamine D2 receptor affinity, 3H-quinpirole binding in homogenized rat striatal brain tissue. How it is done:
Affinity for the dopamine D2 receptor was established by a modification of the standard experimental test procedure of Seemen and Schaus, European Journal of Pharmacology 203: 105-109, 1991, wherein homogenized rat striatal brain tissue is incubated with ^3H-quinpirole and various concentrations of test compound, filtered and washed and counted in a Betaplate scintillation counter.
In the case of `O=c1[nH]c2ccc3c(c2[nH]1)OC(CNCC12CC4CC(CC(C4)C1)C2)CO3` (stereo not drawn) [Example 4, 8-{[(Adamantan-1-ylmethyl)-amino]-methyl}-1,3,7,8-tetrahydro-6,9-dioxa-1,3-diaza-cyclopenta[a]naphthalen-2-one], the IC50 was 0.84 nM.

As for `O=C(c1ccc(F)cc1)C1CCN(C[C@H]2COc3ccc4[nH]c(=O)[nH]c4c3O2)CC1` [Example 6, 8-[4-(4-Fluoro-benzoyl)-piperidin-1-ylmethyl]-1,3,7,8-tetrahydro-6,9-dioxa-1,3-diaza-cyclopenta[a]naphthalen-2-one], the IC50 is 1.43 nM.

The compound `O=c1[nH]c2ccc3c(c2[nH]1)OC(CNCCCCc1ccccc1)CO3` (stereo not drawn) [Example 2, 8-[(4-Phenyl-butylamino)-methyl]-1,3,7,8-tetrahydro-6,9-dioxa-1,3-diaza-cyclopenta[a]naphthalen-2-one] yielded an IC50 of 0.18 nM.

For `O=c1[nH]c2ccc3c(c2[nH]1)O[C@@H](CN1CCc2ccccc2C1)CO3` [Example 5], the IC50 turned out to be 6.78 nM.

`O=c1[nH]c2ccc3c(c2[nH]1)OC(CNCc1ccccc1)CO3` (stereo not drawn) [Example 1, 8-(Benzylamino-methyl)-1,3,7,8-tetrahydro-6,9-dioxa-1,3-diaza-cyclopenta[a]naphthalen-2-one] displayed an IC50 of 0.39 nM.

Consider `CC(=O)Nc1cccc(OCCCNCC2COc3ccc4[nH]c(=O)[nH]c4c3O2)c1` (stereo not drawn) [Example 7, N-(3-{3-[(2-Oxo-2,3,7,8-tetrahydro-1H-6,9-dioxa-1,3-diaza-cyclopenta[a]naphthalen-8-ylmethyl)-amino]propoxy}-phenyl)-acetamide], for which the IC50 stood at 0.55 nM.

`O=c1[nH]c2ccc3c(c2[nH]1)OC(CNCCCc1c[nH]c2ccccc12)CO3` (stereo not drawn) [Example 8, 8-{[3-(1H-indol-3-yl)-propylamino]-methyl}-1,3,7,8-tetrahydro-6,9-dioxa-1,3-diaza-cyclopenta[a]naphthalen-2-one] registered an IC50 of 0.02 nM.

Compound `O=c1[nH]c2ccc3c(c2[nH]1)OC(CN1CC=C(c2ccccc2)CC1)CO3` (stereo not drawn) [Example 3, 8-(4-Phenyl-5,6-dihydro-2H-pyridin-1-ylmethyl)-1,3,7,8-tetrahydro-6,9-dioxa-1,3-diaza-cyclopenta[a]naphthalen-2-one] returned an IC50 of 1.3 nM.

Tested on in the next data set: not given
Assay: not given
For `O=c1[nH]c2ccc3c(c2[nH]1)OC(CN1CC=C(c2ccccc2)CC1)CO3` (stereo not drawn) (as salt: fumarate) (hydrate or solvate) [Example 3, 8-(4-Phenyl-5,6-dihydro-2H-pyridin-1-ylmethyl)-1,3,7,8-tetrahydro-6,9-dioxa-1,3-diaza-cyclopenta[a]naphthalen-2-one], the melting point was 205 to 209 °C.

Consider `CC(=O)Nc1cccc(OCCCNCC2COc3ccc4[nH]c(=O)[nH]c4c3O2)c1` (stereo not drawn) (as salt: fumarate) (hydrate or solvate) [Example 7, N-(3-{3-[(2-Oxo-2,3,7,8-tetrahydro-1H-6,9-dioxa-1,3-diaza-cyclopenta[a]naphthalen-8-ylmethyl)-amino]propoxy}-phenyl)-acetamide], for which the melting point is 125 °C (dec.).

Consider `O=c1[nH]c2ccc3c(c2[nH]1)OC(CNCCCc1c[nH]c2ccccc12)CO3` (stereo not drawn) (as salt: hydrochloride) [Example 8, 8-{[3-(1H-indol-3-yl)-propylamino]-methyl}-1,3,7,8-tetrahydro-6,9-dioxa-1,3-diaza-cyclopenta[a]naphthalen-2-one], for which the melting point was 200 to 207 °C (dec.).

Consider `O=c1[nH]c2ccc3c(c2[nH]1)OC(CNCC12CC4CC(CC(C4)C1)C2)CO3` (stereo not drawn) (as salt: hydrochloride) (hydrate or solvate) [Example 4, 8-{[(Adamantan-1-ylmethyl)-amino]-methyl}-1,3,7,8-tetrahydro-6,9-dioxa-1,3-diaza-cyclopenta[a]naphthalen-2-one], for which the melting point is more than 250 °C.

In the case of `O=c1[nH]c2ccc3c(c2[nH]1)OC(CN1CCC2C=CC=CC2C1)CO3` (stereo not drawn) (as salt: hydrochloride) [Example 5], the melting point is more than 275 °C.

Consider `O=c1[nH]c2ccc3c(c2[nH]1)OC(CNCc1ccccc1)CO3` (stereo not drawn) (as salt: fumarate) (hydrate or solvate) [Example 1, 8-(Benzylamino-methyl)-1,3,7,8-tetrahydro-6,9-dioxa-1,3-diaza-cyclopenta[a]naphthalen-2-one], for which the melting point lay in the range of 149 to 151 °C.

`O=c1[nH]c2ccc3c(c2[nH]1)OC(CNCCCCc1ccccc1)CO3` (stereo not drawn) (as salt: fumarate) (hydrate or solvate) [Example 2, 8-[(4-Phenyl-butylamino)-methyl]-1,3,7,8-tetrahydro-6,9-dioxa-1,3-diaza-cyclopenta[a]naphthalen-2-one] gave a melting point of 224 to 226 °C.
